The chains are these.
B1: AIF-Sm: full length mouse AIF, arginine at 588 substituted with alanine (protein, UniProt Q9Z0X1 1-612, looked up, variant R588A)
chain: MFRCGGLAGAFKQKLVPLVRTVYVQRPKQRNRLPGNLFQQWRVPLELQMARQMASSGSSGGKMDNSVLVLIVGLSTIGAGAYAYKTIKEDQKRYNERVMGLGLSPEEKQRRAIASATEGGSVPQIRAPSHVPFLLIGGGTAAFAAARSIRARDPGARVLIVSEDPELPYMRPPLSKELWFSDDPNVTKTLQFRQWNGKERSIYFQPPSFYVSAQDLPNIENGGVAVLTGKKVVHLDVRGNMVKLNDGSQITFEKCLIATGGTPRSLSAIDRAGAEVKSRTTLFRKIGDFRALEKISREVKSITVIGGGFLGSELACALGRKSQASGIEVIQLFPEKGNMGKILPQYLSNWTMEKVKREGVKVMPNAIVQSVGVSGGRLLIKLKDGRKVETDHIVTAVGLEPNVELAKTGGLEIDSDFGGFRVNAELQARSNIWVAGDAACFYDIKLGRRRVEHHDHAVVSGRLAGENMTGAAKPYWHQSMFWSDLGPDVGYEAIGLVDSSLPTVGVFAKATAQDNPKSATEQSGTGIRSESETESEASEITIPPSAPAVPQVPVEGEDYGKGVIFYLRDKVVVGIVLWNVFNRMPIAAKIIKDGEQHEDLNEVAKLFNIHED
modifications: full-length
notes: full length mouse AIF, arginine at 588 substituted with alanine
B2: AIF-Dm: full length mouse AIF, arginine 588 and lysine 589 substituted with alanines (protein, UniProt Q9Z0X1 1-612, looked up, variant R588A K589A)
chain: MFRCGGLAGAFKQKLVPLVRTVYVQRPKQRNRLPGNLFQQWRVPLELQMARQMASSGSSGGKMDNSVLVLIVGLSTIGAGAYAYKTIKEDQKRYNERVMGLGLSPEEKQRRAIASATEGGSVPQIRAPSHVPFLLIGGGTAAFAAARSIRARDPGARVLIVSEDPELPYMRPPLSKELWFSDDPNVTKTLQFRQWNGKERSIYFQPPSFYVSAQDLPNIENGGVAVLTGKKVVHLDVRGNMVKLNDGSQITFEKCLIATGGTPRSLSAIDRAGAEVKSRTTLFRKIGDFRALEKISREVKSITVIGGGFLGSELACALGRKSQASGIEVIQLFPEKGNMGKILPQYLSNWTMEKVKREGVKVMPNAIVQSVGVSGGRLLIKLKDGRKVETDHIVTAVGLEPNVELAKTGGLEIDSDFGGFRVNAELQARSNIWVAGDAACFYDIKLGRRRVEHHDHAVVSGRLAGENMTGAAKPYWHQSMFWSDLGPDVGYEAIGLVDSSLPTVGVFAKATAQDNPKSATEQSGTGIRSESETESEASEITIPPSAPAVPQVPVEGEDYGKGVIFYLRDKVVVGIVLWNVFNRMPIAAAIIKDGEQHEDLNEVAKLFNIHED
modifications: full-length
notes: full length mouse AIF, arginine 588 and lysine 589 substituted with alanines

Where no end group is shown, it is not given here.

One experiment has as its system PAR. In words: PAR overlay assay of full length AIF and mutants. The following applies: His-tagged proteins, purified PAR, normalized to WT-AIF, result in words. Type of experiment: binding. The procedure: The following experiment was performed to confirm whether AIF in fact binds to PAR. Applicants performed 3 trials of an overlay assay on recombinant AIF with affinity-purified biotin-labeled PAR. Histone H3, which binds to PAR with high affinity, was included as a positive control and bovine serum albumin (“BSA”) was included as a negative control, as described by P. Chang et al. (Nat Cell Bio, 2005). FIG. 1B depicts three photos side by side for gels representative of all trials for these overlay assays. […] Thus, Applicants took the results of these two tests as confirming that AIF binds to PAR in vitro.
To further study these potential AIF PBMs, Applicants performed the following experiment to examine the effect of mutating AIFm amino acids 222-244, 441-463, and/or 567-592 to poly-alanine on the ability of AIF to bind PAR. FIG. 6 comprises black and white photographs of representative gels from an overlay assay of His-tagged WT-AIF, AIFm222-244, AIFm441-463, AIFm567-592, AIFΔ567-592 (i.e., a mutant lacking AAs 567-592), and AIF(K254A, R264A) (i.e., mutating K to A at 254 and R to A at 264) mutants with ^32P-labeled automodified PARP-1 (equivalent to 100 nM of PAR), purified ^32P-labeled PAR (100 nM), or purified ^32P-labeled PAR with either a 100-fold excess of DNA or cold PAR. […] The same can be assumed to corresponding sequences for other species, such as those identified in FIG. 4.
Additionally, to exclude the possibility that PAR polymer is binding to AIF through its DNA-binding domain, PAR polymer binding was assessed against the full length AIF DNA-binding mutant AIFK254A;R264A as described by H Cande et al. (Nat Struct Biol, 2002).
Finally, Human AIF (“AIFH”) is known to bind to DNA through a groove between the FAD-binding domain (“D1”) and C-terminal domain (“D3”). A mutant form of AIFH in which lysine 255 is substituted with alanine and arginine 265 is substituted with alanine (AIFK255A;R265A) completely lacks DNA binding. To investigate the possible contribution of the AIF DNA-binding domain to PAR binding, Applicants assessed PAR binding to AIFm mutated in the same way (AIFK254A;R264A). […] Thus, Applicants concluded that the AIF PAR-binding site is separable from its DNA-binding site, meaning that such binding could be inhibited by genetically modifying AIF without impacting the natural DNA binding capabilities of AIF or potentially by otherwise inhibiting the binding action of the PBMs.
On to “triple leucine mutant: mouse AIF mutant R588L;K589L;K592L (LRDKVVVGIVLWNVFNRMPIALLIIL; mouse)”, for which the PAR binding entry is “nearly abolished PAR-binding”.

Staying with this experiment, now noted: radioactive signal normalized to WT-AIF.
Take “AIFK589L;K592L: His-tagged mouse AIF double leucine mutant, SEQ. ID NO. 21 (LRDKVVVGIVLWNVFNRMPIARLIIL; also: His tag)”: the “reduced PAR binding” value was “about 85%”. Still for that read-out and setting: for “AIFR588L;K589L: His-tagged mouse AIF double leucine mutant, SEQ. ID NO. 19 (LRDKVVVGIVLWNVFNRMPIALLIIK; also: His tag)” the value was “about 85%”. As for “AIFR588L;K592L: His-tagged mouse AIF double leucine mutant, SEQ. ID NO. 20 (LRDKVVVGIVLWNVFNRMPIALKIIL; also: His tag)”, the “reduced PAR binding” value was “about 85%”. On to B1, for which the “reduced PAR binding” value stood at 40%.

B2: the “reduced PAR binding” value was 80%.
